Source: patent publication US10905683B2, “Compositions and uses of amidine derivatives” (BIOCRYST PHARMACEUTICALS, INC., priority 2014, dated 2021)
Converted amounts (≈) assume the structure as drawn.

What was measured:
[1] = octanol-PBS pH 7.4 partition coefficient (log D7.4) assay; type: physicochemical; settings: octanol/0.01 M phosphate buffer pH 7.4, 24 hours, LC/MS/MS
Description: A 1 μL volume of a 1 mM stock solution of the compound in dimethyl sulfoxide (DMSO) was added to 500 μL 0.01 M phosphate buffer pH 7.4 (saturated with octanol) and 500 μL of octanol (saturated with 0.01 M phosphate buffer). […] Samples were prepared in triplicate.

[2] = Polymorphic conversion of Form A under relative humidity; type: physicochemical; settings: RH 43%, 75% and 100%, room temperature
Description: In another embodiment, pharmaceutical compositions of Form A, in particular the oral pharmaceutical compositions described herein, when administered to a subject provide for increased bioavailability of the compound as compared to amorphous 3-[2-(4-carbamimidoyl-phenylcarbamoyl)-5-methoxy-4-vinylphenyl]-6-(cyclopropylmethyl-carbamoyl)-pyridine-2-carboxylic acid and salts thereof and other crystalline forms. In another embodiment, pharmaceutical compositions of Form A, in particular the oral pharmaceutical compositions described herein, when administered to a subject for treating a condition, is sufficient to affect such treatment. In another embodiment, pharmaceutical compositions of Form A, in particular the oral pharmaceutical compositions described herein, when administered to a subject for treating a condition, is sufficient to affect such treatment when dosed 1 to 3 times per day or less (such as 1 to 2 times). In another embodiment, pharmaceutical compositions of Form A, in particular the oral pharmaceutical compositions described wherein when administered to a subject provide for a therapeutically effective amount of the compound of at least 10 ng/ml, at least 15 ng/ml or at least 25 ng/ml in the blood of the subject for a period of at least from two hours to four hours after administration to a subject. […]

[3] = Concentration achieved in formulations and excipient mixtures; type: physicochemical; settings: in the (oral) pharmaceutical compositions described
Description: In initial formulation work for the amidine compounds described herein, in particular 3-[2-(4-carbamimidoyl-phenylcarbamoyl)-5-methoxy-4-vinyl-phenyl]-6-(cyclopropylmethyl-carbamoyl)-pyridine-2-carboxylic acid, extensive studies were carried out to identify a suitable mixture of excipients to produce the oral formulation described herein.
Specifically, a variety of approaches were taken to develop suitable oral formulations of 3-[2-(4-carbamimidoyl-phenylcarbamyl)-5-methoxy-4-vinyl-phenyl]-6-(cyclopropylmethyl-carbamoyl)-pyridine-2-carboxylic acid. The approaches taken included use of a variety of hydrophilic polymers, including α-cyclodextrin and a polyanionic 3-cyclodextrin derivative with a sodium sulfonate salt separated from the lipophilic cavity by a butyl ether or sulfobutylether spacer group in combination with a variety of co-solvents. In addition, the compound was evaluated in formulations created by a number of different technologies (such as dry blends, nanosuspensions, solid dispersion and emulsions) using a variety of approaches.

[4] = Aqueous solubility assay in buffer and simulated gastric/intestinal fluids; settings: 37 °C, thermodynamic from solid, Observed Solubility, Target 100 μM, 24 hours
Description: The target concentration in each solution was 100 μM. […] The aqueous solutions were added (1 mL) to the dried samples and mixed at 400 rpm at 37° C. on an orbital plate shaker. […] Samples were prepared in triplicate. Testosterone and verapamil were used as reference compounds.

With C[C@@H]1C[C@H]2[C@@H]3CCC4=CC(=O)C=C[C@]4(C)[C@@]3(F)[C@@H](O)C[C@]2(C)[C@@]1(O)C(=O)CO [Dexamethasone, reference compound] the logD at 24 h [1] was 1.5.

For C=Cc1cc(C(=O)Nc2ccc(C(=N)N)cc2)c(-c2ccc(C(=O)NCC3CC3)nc2C(=O)O)cc1OC.Cl [Form A, 3-[2-(4-Carbamimidoylphenylcarbamoyl)-5-methoxy-4-vinylphenyl]-6-(cyclopropylmethylcarbamoyl)pyridine-2-carboxylic acid hydrochloride], the “conversion to other polymorphic forms” value [2] was “not observed” and the concentration solubilized [3] was “greater than 140 mg/ml”.

C[C@]12CC[C@H]3[C@@H](CCC4=CC(=O)CC[C@@]43C)[C@@H]1CC[C@@H]2O [Testosterone, reference compound] gave a solubility at 24 h ([4]; fassgf or other biorelevant, Fasted-State SGF) of 43 µM (≈ 12.4 µg/mL), a solubility at 24 h ([4]; fassgf or other biorelevant, Fed-State SGF) of 27 µM (≈ 7.79 µg/mL) and a solubility at 24 h ([4]; fassif, Fasted-State SIF) of 35 µM (≈ 10.1 µg/mL). For the same compound, the solubility at 24 h ([4]; fessif, Fed-State SIF) was 36 µM (≈ 10.4 µg/mL) and the solubility at 24 h ([4]; pH 7.4, aqueous buffer, 0.1M phosphate buffer pH 7.4, 37° C.) was 42 µM (≈ 12.1 µg/mL).
